From patent US20120178765A1, “NOVEL GLUCOKINASE ACTIVATORS AND PROCESSES FOR THE PREPARATION THEREOF” (YUHAN CORPORATION, priority 2009, published 2012)

molecular target: T1, Glucokinase (Homo sapiens, UniProt P35557); assay: Glucokinase activation assay (NADPH absorbance at 340 nm); type: biochemical; conditions: glucokinase (ProteinOne Inc.), 5 mM D(+)-glucose, 24° C., 90 minutes
T1 construct: purchased ProteinOne Inc
T1 sequence (P35557 1-465): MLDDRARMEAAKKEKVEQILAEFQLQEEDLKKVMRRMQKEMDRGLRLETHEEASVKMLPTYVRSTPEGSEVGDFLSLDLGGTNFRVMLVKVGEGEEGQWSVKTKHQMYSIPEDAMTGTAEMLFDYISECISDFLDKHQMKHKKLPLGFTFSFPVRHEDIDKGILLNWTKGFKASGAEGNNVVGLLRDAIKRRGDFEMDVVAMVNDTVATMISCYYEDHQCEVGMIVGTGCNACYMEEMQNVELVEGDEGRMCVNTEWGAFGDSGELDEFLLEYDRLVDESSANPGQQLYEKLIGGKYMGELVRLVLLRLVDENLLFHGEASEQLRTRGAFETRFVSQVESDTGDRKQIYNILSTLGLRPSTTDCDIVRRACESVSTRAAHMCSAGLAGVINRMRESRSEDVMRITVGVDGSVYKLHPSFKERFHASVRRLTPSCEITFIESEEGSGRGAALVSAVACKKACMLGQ
Method: The amounts of glucokinase activation were determined by measuring the levels of NADPH (the final metabolite of glucose through glucokinase-mediated phospho-rylation) and then calculating to glucokinase activities.
Glucokinase (ProteinOne Inc.) was added, in the concentration of 100 ng/uL, to a enzyme-reaction medium (25 mM HEPES pH 7, 25 mM KCL, 1 mM MgCl, 5 mM D(+)-glucose, 1 mM ATP, 1 mM NADP, 1 mM DTT, and 2.5 u/mL G6PDH). Each compound in predetermined concentrations was added to the enzyme-reaction medium and then absorbance (First Absorbance) was measured at 340 nm of wavelength. After measuring the first absorbance, each reaction mixture was incubated at 24° C. for 90 minutes and then absorbance (Second Absorbance) was re-measured at 340 nm of wavelength. Using changes between First Absorbance and Second Absorbance, glucokinase activity was calculated. In the calculation, a maximum activity of the test compound (Emax), in comparison to the control group (no treatment of compound) was determined and then EC50 was calculated using the software for statistical analysis “Prism”, based on the activity-changes according to concentrations of the test compounds.
The amounts of glucokinase activation of the compounds of Comparative Examples 1 and 2 were determined, in accordance with the same procedures as in Test Example 1.

Row | Compound | EC50 [nM]
1 | 3-{2-[3-(3-methyl-butyrylamino)phenyl]ethyl}-5-(2-methoxy-(1S)-methyl-ethoxy)-N-(thiazol-2-yl)-benzamide [Example 120] | 473
2 | 3-{2-[3-(4-chlorobenzoylamino)phenyl]ethyl}-5-(2-methoxy-(1S)-methyl-ethoxy)-N-(t hiazol-2-yl)-benzamide [Example 126] | 364
3 | 3-{2-[4-(3-ethyl-thio-ureido)phenyl]ethyl}-5-(2-methoxy-(1S)-methyl-ethoxy)-N-(thiazol-2-yl)-benzamide [Example 146] | 454
4 | 3-{2-[4-(3-methyl-butyrylamino)phenyl]ethyl}-5-(2-methoxy-(1S)-methyl-ethoxy)-N-(thiazol-2-yl)-benzamide [Example 134] | 355
5 | 3-{2-[4-(4-chlorobenzoylamino)phenyl]ethyl}-5-(2-methoxy-(1S)-methyl-ethoxy)-N-(thiazol-2-yl)-benzamide [Example 140] | 440
6 | 3-{2-[4-(4-fluorobenzoylamino)phenyl]ethyl}-5-(2-methoxy-(1S)-methyl-ethoxy)-N-(t hiazol-2-yl)-benzamide [Example 139] | 371
7 | COC[C@H](C)Oc1cc(/C=C/c2ccccc2F)cc(C(=O)Nc2nccs2)c1 (stereo in doubt) [Example 6, 3-[trans-2-(2-fluorophenyl)vinyl]-5-(2-methoxy-(1S)-methyl-ethoxy)-N-(thiazol-2-yl)-benzamide] | 38.5
8 | COC[C@H](C)Oc1cc(/C=C/c2c(F)cccc2F)cc(C(=O)Nc2ccn(C)n2)c1 (stereo in doubt) [Example 37, 3-[trans-2-(2,6-difluorophenyl)vinyl]-5-(2-methoxy-(1S)-methyl-ethoxy)-N-(1-methyl-1H-pyrazol-3-yl)-benzamide] | 161
9 | COC[C@H](C)Oc1cc(/C=C/c2cc(OC)cc(OC)c2)cc(C(=O)Nc2ccn(C)n2)c1 (stereo in doubt) [Example 40, 3-[trans-2-(3,5-dimethoxyphenyl)vinyl]-5-(2-methoxy-(1S)-methyl-ethoxy)-N-(1-methyl-1H-pyrazol-3-yl)-benzamide] | 174
10 | COC[C@H](C)Oc1cc(/C=C/c2ccccc2Cl)cc(C(=O)Nc2ccn(C)n2)c1 (stereo in doubt) [Example 46, 3-[trans-2-(2-chlorophenyl)vinyl]-5-(2-methoxy-(1S)-methyl-ethoxy)-N-(1-methyl-1H-pyrazol-3-yl)-benzamide] | 149
11 | CC(C)Oc1cc(/C=C/c2ccccn2)cc(C(=O)Nc2ccc(C(=O)O)cn2)c1 [Comparative Example 1, reference compound] | 2450
12 | CC(C)/C=C\c1cc(OC(C)C)cc(C(=O)Nc2ncc(C(=O)O)s2)c1 [Comparative Example 2, reference compound] | 1870
13 | Cc1ccc(/C=C/c2cc(OCC(C)C)cc(C(=O)Nc3nccs3)c2)cc1 [Example 1, 3-[trans-2-(p-tolyl)vinyl]-5-isobutoxy-N-(thiazol-2-yl)-benzamide] | 164
14 | CC(C)COc1cc(/C=C/c2ccc(F)cc2)cc(C(=O)Nc2nccs2)c1 [Example 2, 3-[trans-2-(4-fluorophenyl)vinyl]-5-isobutoxy-N-(thiazol-2-yl)-benzamide] | 172
15 | CC(C)COc1cc(/C=C/c2ccccc2[N+](=O)[O-])cc(C(=O)Nc2nccs2)c1 [Example 3, 3-[trans-2-(2-nitrophenyl)vinyl]-5-isobutoxy-N-(thiazol-2-yl)-benzamide] | 90.2
16 | COc1ccc(/C=C/c2cc(OCC(C)C)cc(C(=O)Nc3nccs3)c2)cc1OC [Example 4, 3-[trans-2-(3,4-dimethoxyphenyl)vinyl]-5-isobutoxy-N-(thiazol-2-yl)-benzamide] | 222
17 | COc1cccc(/C=C/c2cc(OCC(C)C)cc(C(=O)Nc3nccs3)c2)c1OC [Example 5, 3-[trans-2-(2,3-dimethoxyphenyl)vinyl]-5-isobutoxy-N-(thiazol-2-yl)-benzamide] | 173
18 | COC[C@H](C)Oc1cc(/C=C/c2cccc([N+](=O)[O-])c2)cc(C(=O)Nc2ccc(C(=O)OC)cn2)c1 [Example 63, 3-[trans-2-(3-nitrophenyl)vinyl]-5-(2-methoxy-(1S)-methyl-ethoxy)-N-(nicotinic acid-3-methyl ester-6-yl)-benzamide] | 403
19 | COC[C@H](C)Oc1cc(/C=C/c2cccc(F)c2F)cc(C(=O)Nc2ccc(C(=O)OC)cn2)c1 [Example 66, 3-[trans-2-(2,3-difluorophenyl)vinyl]-5-(2-methoxy-(1S)-methyl-ethoxy)-N-(nicotinic acid-3-methyl ester-6-yl)-benzamide] | 387

Continued by falling EC50, values first:

Row | EC50 [nM] | Compound
20 | 355 | 3-{2-[4-(3,5-dimethoxybenzoylamino)phenyl]ethyl}-5-(2-methoxy-(1S)-methyl-ethoxy)-N-(thiazol-2-yl)-benzamide [Example 141]
21 | 340 | 3-{2-[3-(4-fluorobenzoylamino)phenyl]ethyl}-5-(2-methoxy-(1S)-methyl-ethoxy)-N-(thiazol-2-yl)-benzamide [Example 125]
22 | 319 | 3-{2-[4-(3-phenyl-ureido)phenyl]ethyl}-5-(2-methoxy-(1S)-methyl-ethoxy)-N-(thiazol-2-yl)-benzamide [Example 145]
23 | 292 | COC[C@H](C)Oc1cc(/C=C/c2ccc(F)cc2)cc(C(=O)Nc2ccc(C(=O)OC)cn2)c1 [Example 65, 3-[trans-2-(4-fluorophenyl)vinyl]-5-(2-methoxy-(1S)-methyl-ethoxy)-N-(nicotinic acid-3-methyl ester-6-yl)-benzamide]
24 | 284 | 3-{2-[4-(2-(thiophen-2-yl)acetylamino)phenyl]ethyl}-5-(2-methoxy-(1S)-methyl-ethoxy)-N-(thiazol-2-yl)-benzamide [Example 143]
25 | 276 | COC[C@H](C)Oc1cc(/C=C/c2ccccc2OC)cc(C(=O)Nc2ccc(C(=O)OC)cn2)c1 [Example 61, 3-[trans-2-(2-methoxyphenyl)vinyl]-5-(2-methoxy-(1S)-methyl-ethoxy)-N-(nicotinic acid-3-methyl ester-6-yl)-benzamide]
26 | 270 | 3-{2-[4-(phenylacetylamino)phenyl]ethyl}-5-(2-methoxy-(1S)-methyl-ethoxy)-N-(thiazol-2-yl)-benzamide [Example 137]
27 | 266 | 3-{2-[3-(4-nitrobenzoylamino)phenyl]ethyl}-5-(2-methoxy-(1S)-methyl-ethoxy)-N-(thiazol-2-yl)-benzamide [Example 127]
28 | 239 | COC[C@H](C)Oc1cc(/C=C/c2cccc([N+](=O)[O-])c2)cc(C(=O)Nc2ccn(C)n2)c1 [Example 38, 3-[trans-2-(3-nitrophenyl)vinyl]-5-(2-methoxy-(1S)-methyl-ethoxy)-N-(1-methyl-H-pyrazol-3-yl)-benzamide]
29 | 231 | COC[C@H](C)Oc1cc(/C=C/c2ccc(F)cc2F)cc(C(=O)Nc2ccc(C(=O)OC)cn2)c1 [Example 67, 3-[trans-2-(2,4-difluorophenyl)vinyl]-5-(2-methoxy-(1S)-methyl-ethoxy)-N-(nicotinic acid-3-methyl ester-6-yl)-benzamide]
30 | 227 | 3-{2-[3-(3-phenyl-ureido)phenyl]ethyl}-5-(2-methoxy-(1S)-methyl-ethoxy)-N-(thiazol-2-yl)-benzamide [Example 130]
31 | 225 | 3-{2-[3-(phenylacetylamino)phenyl]ethyl}-5-(2-methoxy-(1S)-methyl-ethoxy)-N-(thiazol-2-yl)-benzamide [Example 123]
32 | 159 | COC[C@H](C)Oc1cc(/C=C/c2ccccc2F)cc(C(=O)Nc2ccc(C(=O)OC)cn2)c1 [Example 64, 3-[trans-2-(2-fluorophenyl)vinyl]-5-(2-methoxy-(1S)-methyl-ethoxy)-N-(nicotinic acid-3-methyl ester-6-yl)-benzamide]
33 | 106 | COC[C@H](C)Oc1cc(/C=C/c2ccccc2[N+](=O)[O-])cc(C(=O)Nc2ccc(C(=O)OC)cn2)c1 [Example 62, 3-[trans-2-(2-nitrophenyl)vinyl]-5-(2-methoxy-(1S)-methyl-ethoxy)-N-(nicotinic acid-3-methyl ester-6-yl)-benzamide]
34 | 14.7 | COC[C@H](C)Oc1cc(/C=C/c2c(F)cccc2F)cc(C(=O)Nc2nccs2)c1 [Example 12, 3-[trans-2-(2,6-difluorophenyl)vinyl]-5-(2-methoxy-(1S)-methyl-ethoxy)-N-(thiazol-2-yl)-benzamide]
35 | 12.7 | COC[C@H](C)Oc1cc(/C=C/c2ccccc2[N+](=O)[O-])cc(C(=O)Nc2nccs2)c1 [Example 13, 3-[trans-2-(2-nitrophenyl)vinyl]-5-(2-methoxy-(1S)-methyl-ethoxy)-N-(thiazol-2-yl)-benzamide]
